Inhibition of growth data for 34 molecules are collected here from ChEMBL document CHEMBL3046649, “Fungitoxic and Phytotoxic Activities of Cinnamic Acid Esters and Amides” (2000).

In assay [1] the test system is Brassica rapa subsp. chinensis. Briefly: whole plant or invertebrate. In kind it is functional. Conditions: 72 h, read-out: GI.
Description: Phytotoxicity against Brassica rapa subsp. chinensis assessed as growth inhibition of hypocotyl at 100 ppm treated to seeds after 3 days
In assay [2] the test system is Pythium. Briefly: microbe, parasite or virus in culture. Particulars: read-out: GI. Format: functional.
Description: Fungitoxic activity against Pythium sp. assessed as mycelial growth inhibition at 100 ppm after 4 to 5 days by agar dilution method
Assay [3] concerns Brassica rapa subsp. chinensis. In words: whole plant or invertebrate. In kind it is functional. Conditions: 72 h, read-out: GI. This is another data set of the same source.
Description: Phytotoxicity against Brassica rapa subsp. chinensis assessed as growth inhibition of radicle at 100 ppm treated to seeds after 3 days
Assay [4] has as its system Athelia rolfsii. In words: microbe, parasite or virus in culture. Particulars: Agroathelia rolfsii, read-out: GI. In kind it is functional.
Description: Fungitoxic activity against Athelia rolfsii assessed as mycelial growth inhibition at 100 ppm after 4 to 5 days by agar dilution method
Assay [5] concerns Pythium. Briefly: Fungitoxic activity against Pythium sp. assessed as mycelial growth inhibition at 10 ppm after 4 to 5 days by agar dilution method. Particulars: read-out: GI. On the technique in general: Agar dilution tests growth on a series of plates holding different concentrations.
Assay [6] has as its system Athelia rolfsii. In words: Fungitoxic activity against Athelia rolfsii assessed as mycelial growth inhibition at 10 ppm after 4 to 5 days by agar dilution method. In kind it is functional. Conditions: Agroathelia rolfsii; read-out: GI.

Turning to `CCC(C)NC(=O)/C=C/c1ccc(Cl)cc1Cl` (stereo unspecified) [N-SEC-BUTYL-3-(2,4-DICHLOROPHENYL)ACRYLAMIDE], the inhibition of growth at 100 ppm in assay [1] amounted to 21%; in the assay with Pythium [2], 23%; in assay [3] it was 41%; in the assay on Athelia rolfsii [4], 31%.
Regarding `CC(C)(C)NC(=O)/C=C/c1ccc(Cl)cc1Cl` [N-TERT-BUTYL-3-(2,4-DICHLOROPHENYL)ACRYLAMIDE], the inhibition of growth at 100 ppm in assay [1] is 11%; with Pythium [2], 22%; in assay [3], 26%; in the assay with Athelia rolfsii [4], 21%.
As to `CC(C)NC(=O)/C=C/c1ccc(Cl)cc1Cl` [3-(2,4-DICHLOROPHENYL)-N-ISOPROPYLACRYLAMIDE], the inhibition of growth at 100 ppm in assay [1] stood at 11%; in the assay with Pythium [2] it was 28%; in assay [3] it was 30%; with Athelia rolfsii [4], 31%.
For the molecule `CC(C)c1ccc(/C=C/C(=O)NC(C)(C)C)cc1` [N-TERT-BUTYL-3-(4-ISOPROPYLPHENYL)ACRYLAMIDE], the inhibition of growth at 100 ppm in assay [1] is 7%; in the assay with Pythium [2], 62%; in assay [3] it was 43%; with Athelia rolfsii [4] it was 31%. In addition, in the assay on Pythium [5], the inhibition of growth at 10 ppm is 45%.
As for `CCCCCCCCNC(=O)/C=C/c1ccccc1` [N-OCTYLCINNAMAMIDE], the inhibition of growth at 100 ppm in assay [1] was determined as 34%; in the assay with Pythium [2], 24%; in assay [3], 42%; with Athelia rolfsii [4] it was 46%.
With `CCCCOC(=O)/C=C/c1ccccc1` [BUTYL CINNAMATE], the inhibition of growth at 100 ppm was determined as 5% in assay [1], 17% in the assay on Pythium [2], 0% in assay [3] and 42% in the assay with Athelia rolfsii [4].
Taken in the same sequence, the figures for `CCCCCCCCCCCCCCCCNC(=O)/C=C/c1ccccc1` [N-HEXADECYLCINNAMAMIDE] were 20%, 12%, 75% and 0%.
Regarding `CCCCCCCCCCCCNC(=O)/C=C/c1ccccc1` [N-DODECYLCINNAMAMIDE], the inhibition of growth at 100 ppm in assay [1] came to 48%; in the assay on Pythium [2], 21%; in assay [3], 32%; in the assay with Athelia rolfsii [4] it was 13%.
As for `Cc1ccc(OC(=O)/C=C/c2ccc(C(C)C)cc2)c(C(C)C)c1`, the inhibition of growth at 100 ppm was found to be 39% in assay [1], 15% in the assay with Pythium [2], 28% in assay [3] and 24% in the assay on Athelia rolfsii [4].
With `Cc1cccc(NC(=O)/C=C/c2ccccc2)c1C`, the inhibition of growth at 100 ppm is 32% in assay [1], 16% with Pythium [2], 56% in assay [3] and 12% in the assay with Athelia rolfsii [4].
Consider `CC(C)OP(=O)(OC(C)C)SCc1ccccc1` [IPROBENFOS], for which the inhibition of growth at 10 ppm in the assay on Athelia rolfsii [6] is 69%; with Pythium [5] it was 42%. Further, the inhibition of growth at 100 ppm came to 89% in the assay with Pythium [2] and 100% with Athelia rolfsii [4].
As for `Cc1ccc(C(C)C)c(OC(=O)/C=C/c2ccc(C(C)C)cc2)c1`, the inhibition of growth at 100 ppm is 42% in assay [1], 2% with Pythium [2], 30% in assay [3] and 0% with Athelia rolfsii [4].
Regarding `CCc1ccc(NC(=O)/C=C/c2ccccc2)cc1`, the inhibition of growth at 100 ppm in assay [1] came to 10%; in the assay with Pythium [2], 34%; in assay [3], 20%; with Athelia rolfsii [4], 53%.
On to `CC(C)=CCC/C(C)=C/COC(=O)/C=C/c1ccc(Cl)cc1Cl`, for which the inhibition of growth at 100 ppm in assay [1] is 26%; in the assay with Pythium [2], 24%; in assay [3], 1%; in the assay on Athelia rolfsii [4], 30%.
Turning to `CCCNC(=O)/C=C/c1ccc(Cl)cc1Cl` [3-(2,4-DICHLOROPHENYL)-N-PROPYLACRYLAMIDE], the inhibition of growth at 100 ppm in assay [1] amounted to 18%; with Pythium [2], 29%; in assay [3], 26%; with Athelia rolfsii [4] it was 43%.
`Cc1ccc(NC(=O)/C=C/c2ccccc2)c(C)c1`: the inhibition of growth at 100 ppm in assay [1] was determined as 0%; with Pythium [2] it was 4%; in assay [3] it was 0%; in the assay on Athelia rolfsii [4] it was 5%.
For `CCCCCCCCCCNC(=O)/C=C/c1ccccc1`, the inhibition of growth at 100 ppm is 10% in assay [1], 27% with Pythium [2], 15% in assay [3] and 23% in the assay on Athelia rolfsii [4].
Consider `Cc1cccc(C)c1NC(=O)/C=C/c1ccccc1`, for which the inhibition of growth at 100 ppm in assay [1] turned out to be 0%; with Pythium [2], 31%; in assay [3], 0%; in the assay with Athelia rolfsii [4], 13%.
For `Cc1ccc(OC(=O)/C=C/c2ccc(Cl)cc2Cl)c(C(C)C)c1`, the inhibition of growth at 100 ppm in assay [1] stood at 32%; with Pythium [2], 15%; in assay [3], 0%; in the assay on Athelia rolfsii [4], 67%. Moreover, the inhibition of growth at 10 ppm in the assay on Athelia rolfsii [6] was found to be 21%.
As to `Cc1ccc(C(C)C)c(OC(=O)/C=C/c2ccc(Cl)cc2Cl)c1`, the inhibition of growth at 100 ppm in assay [1] turned out to be 33%; with Pythium [2], 29%; in assay [3] it was 0%; in the assay with Athelia rolfsii [4], 33%.
On to `CC(C)CNC(=O)/C=C/c1ccc(Cl)cc1Cl` [3-(2,4-DICHLOROPHENYL)-N-ISOBUTYLACRYLAMIDE], for which the inhibition of growth at 100 ppm in assay [1] came to 7%; in the assay with Pythium [2], 31%; in assay [3], 43%; in the assay on Athelia rolfsii [4] it was 38%.
As to `CCCCNC(=O)/C=C/c1ccc(Cl)cc1Cl` [N-BUTYL-3-(2,4-DICHLOROPHENYL)ACRYLAMIDE], the inhibition of growth at 100 ppm in assay [1] was determined as 17%; in the assay on Pythium [2] it was 9%; in assay [3] it was 49%; with Athelia rolfsii [4] it was 16%.
Take `CCCOC/C(=N\c1ccc(Cl)cc1C(F)(F)F)n1ccnc1` [TRIFLUMIZOLE]: the inhibition of growth at 10 ppm came to 64% with Athelia rolfsii [6] and 71% in the assay with Pythium [5]. The figures for the inhibition of growth at 100 ppm in the assay with Pythium [2] and with Athelia rolfsii [4] were 94% and 100%, respectively.
Turning to `Cc1ccc(NC(=O)/C=C/c2ccccc2)cc1` [N-P-TOLYLCINNAMAMIDE], the inhibition of growth at 100 ppm in assay [1] was 24%; in the assay on Pythium [2], 59%; in assay [3], 57%; in the assay on Athelia rolfsii [4], 47%. The inhibition of growth at 10 ppm in the assay on Pythium [5] came to 35%.
Consider `Cc1ccc(C(C)C)c(OC(=O)/C=C/c2ccc(Cl)cc2)c1`, for which the inhibition of growth at 100 ppm worked out at 36% in assay [1], 6% in the assay on Pythium [2], 24% in assay [3] and 39% with Athelia rolfsii [4].
Taken in the same sequence, the figures for `CC(C)=CCCC(C)CCOC(=O)/C=C/c1ccc(Cl)cc1Cl` (stereo unspecified) [3,7-DIMETHYLOCT-6-ENYL 3-(2,4-DICHLOROPHENYL)ACRYLATE] were 25%, 0%, 0% and 15%.
Turning to `CC(C)(C)NC(=O)/C=C/c1ccc(Cl)cc1` [N-TERT-BUTYL-3-(4-CHLOROPHENYL)ACRYLAMIDE], the inhibition of growth at 100 ppm is 29% in assay [1], 21% with Pythium [2], 55% in assay [3] and 71% in the assay with Athelia rolfsii [4]. In the assay with Athelia rolfsii [6], the inhibition of growth at 10 ppm is 60%.
Consider `Cc1ccc(OC(=O)/C=C/c2ccc(Cl)cc2)c(C(C)C)c1`, for which the inhibition of growth at 100 ppm in assay [1] was found to be 41%; in the assay with Pythium [2] it was 13%; in assay [3], 18%; in the assay with Athelia rolfsii [4], 41%.
Take `CC(C)COC(=O)/C=C/c1ccccc1` [ISOBUTYL CINNAMATE]: the inhibition of growth at 100 ppm in assay [1] was 40%; in the assay with Pythium [2] it was 57%; in assay [3] it was 0%; in the assay on Athelia rolfsii [4], 42%.
Regarding `Cc1ccccc1NC(=O)/C=C/c1ccccc1` [N-O-TOLYLCINNAMAMIDE], the inhibition of growth at 100 ppm amounted to 9% in assay [1], 52% with Pythium [2], 39% in assay [3] and 49% in the assay on Athelia rolfsii [4]. Further, the inhibition of growth at 10 ppm with Pythium [5] came to 18%.
On to `O=C(/C=C/c1ccccc1)NCc1ccccc1Cl` [N-(2-CHLOROBENZYL)CINNAMAMIDE], for which the inhibition of growth at 100 ppm turned out to be 70% in assay [1], 23% with Pythium [2], 88% in assay [3] and 41% in the assay on Athelia rolfsii [4].
Consider `CCc1ccccc1NC(=O)/C=C/c1ccccc1`, for which the inhibition of growth at 100 ppm worked out at 0% in assay [1], 26% with Pythium [2], 21% in assay [3] and 19% with Athelia rolfsii [4].
`O=C(/C=C/c1ccccc1)NCc1ccc(Cl)cc1` [N-(4-CHLOROBENZYL)CINNAMAMIDE]: the inhibition of growth at 100 ppm was found to be 6% in assay [1], 33% in the assay with Pythium [2], 44% in assay [3] and 27% in the assay with Athelia rolfsii [4].
Take `O=C(/C=C/c1ccccc1)NCc1ccc(Cl)cc1Cl` [N-(2,4-DICHLOROBENZYL)CINNAMAMIDE]: the inhibition of growth at 100 ppm in assay [1] amounted to 0%; with Pythium [2], 41%; in assay [3], 43%; with Athelia rolfsii [4] it was 51%.
